Columns and labels:
PIP5K1γ(h) = PIP5K1γ(h) (Homo sapiens, UniProt O60331); experiment: KinaseProfiler kinase assay; type: biochemical
DRAK1(h) = DRAK1(h) (Homo sapiens, UniProt Q9UEE5); experiment: KinaseProfiler kinase assay; type: biochemical
CHK2(R145W)(h) = CHK2(R145W)(h) (Homo sapiens, UniProt O96017, R145W); experiment: KinaseProfiler kinase assay; type: biochemical
PI3 Kinase (p120γ)(h) = PI3 Kinase (p120γ)(h) (Homo sapiens, UniProt P48736); experiment: KinaseProfiler kinase assay; type: biochemical
Sequence of PI3 Kinase (p120γ)(h) (P48736 whole entry): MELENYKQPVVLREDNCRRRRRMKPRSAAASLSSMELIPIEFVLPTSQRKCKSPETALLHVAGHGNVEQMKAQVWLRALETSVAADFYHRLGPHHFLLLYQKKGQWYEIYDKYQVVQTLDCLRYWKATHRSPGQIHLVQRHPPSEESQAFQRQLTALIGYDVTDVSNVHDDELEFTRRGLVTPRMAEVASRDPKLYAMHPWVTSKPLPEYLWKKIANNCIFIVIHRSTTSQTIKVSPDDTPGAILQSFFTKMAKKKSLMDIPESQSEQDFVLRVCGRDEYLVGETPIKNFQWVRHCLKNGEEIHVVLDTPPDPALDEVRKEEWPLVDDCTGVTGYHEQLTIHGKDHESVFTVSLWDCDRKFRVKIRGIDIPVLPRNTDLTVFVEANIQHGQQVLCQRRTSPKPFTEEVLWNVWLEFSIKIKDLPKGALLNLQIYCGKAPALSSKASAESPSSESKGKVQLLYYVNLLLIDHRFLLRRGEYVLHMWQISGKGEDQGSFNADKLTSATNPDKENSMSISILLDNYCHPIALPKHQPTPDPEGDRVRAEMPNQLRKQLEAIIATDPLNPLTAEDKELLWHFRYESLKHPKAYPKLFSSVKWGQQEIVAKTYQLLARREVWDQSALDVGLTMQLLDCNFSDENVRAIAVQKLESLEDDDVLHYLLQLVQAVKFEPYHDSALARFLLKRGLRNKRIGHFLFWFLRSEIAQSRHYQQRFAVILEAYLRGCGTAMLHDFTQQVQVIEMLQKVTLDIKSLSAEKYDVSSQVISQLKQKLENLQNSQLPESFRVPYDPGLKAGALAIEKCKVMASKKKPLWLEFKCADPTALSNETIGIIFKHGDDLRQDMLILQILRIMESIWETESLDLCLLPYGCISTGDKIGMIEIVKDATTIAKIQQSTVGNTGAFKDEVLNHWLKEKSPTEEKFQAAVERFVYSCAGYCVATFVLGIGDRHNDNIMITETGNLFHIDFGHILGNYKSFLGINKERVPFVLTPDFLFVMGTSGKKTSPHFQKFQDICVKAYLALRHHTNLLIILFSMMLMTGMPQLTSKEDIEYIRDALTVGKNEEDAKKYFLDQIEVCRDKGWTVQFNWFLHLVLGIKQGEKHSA

CK1γ1(h) = CK1γ1(h) (Homo sapiens, UniProt Q9HCP0); experiment: KinaseProfiler kinase assay; type: biochemical
Sequence of CK1γ1(h) (Q9HCP0 whole entry): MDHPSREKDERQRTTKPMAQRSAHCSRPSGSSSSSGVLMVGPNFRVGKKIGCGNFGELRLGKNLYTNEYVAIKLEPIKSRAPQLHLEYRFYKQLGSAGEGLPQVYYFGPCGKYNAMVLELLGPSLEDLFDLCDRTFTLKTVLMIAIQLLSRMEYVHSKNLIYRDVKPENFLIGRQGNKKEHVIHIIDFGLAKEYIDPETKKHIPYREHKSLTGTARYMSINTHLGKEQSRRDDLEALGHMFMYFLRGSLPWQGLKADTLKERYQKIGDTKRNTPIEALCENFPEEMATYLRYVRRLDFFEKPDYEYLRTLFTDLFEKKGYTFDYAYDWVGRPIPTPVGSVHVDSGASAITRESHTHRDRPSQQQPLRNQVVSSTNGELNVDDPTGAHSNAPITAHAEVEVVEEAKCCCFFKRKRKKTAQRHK

Fgr(h) = Fgr(h) (Homo sapiens, UniProt P09769); experiment: KinaseProfiler kinase assay; type: biochemical
mTOR(h) = mTOR(h) (Homo sapiens, UniProt P42345); experiment: KinaseProfiler kinase assay; type: biochemical
JNK2α2(h) = JNK2α2(h) (Homo sapiens, UniProt P45984); experiment: KinaseProfiler kinase assay; type: biochemical
Sequence of JNK2α2(h) (P45984 whole entry): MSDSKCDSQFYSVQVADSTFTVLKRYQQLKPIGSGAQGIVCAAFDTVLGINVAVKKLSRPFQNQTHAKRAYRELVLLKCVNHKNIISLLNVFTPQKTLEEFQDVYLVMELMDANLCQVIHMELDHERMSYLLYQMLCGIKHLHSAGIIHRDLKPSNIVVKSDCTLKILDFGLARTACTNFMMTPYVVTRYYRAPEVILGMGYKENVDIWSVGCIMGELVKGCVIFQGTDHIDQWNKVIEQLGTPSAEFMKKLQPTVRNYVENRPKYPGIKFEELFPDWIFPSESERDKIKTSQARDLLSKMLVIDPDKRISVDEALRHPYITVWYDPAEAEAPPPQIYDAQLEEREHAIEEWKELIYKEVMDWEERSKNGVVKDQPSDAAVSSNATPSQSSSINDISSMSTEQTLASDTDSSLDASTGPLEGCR

GSK3α(h) = GSK3α(h) (Homo sapiens, UniProt P49840); experiment: KinaseProfiler kinase assay; type: biochemical
Sequence of GSK3α(h) (P49840 whole entry): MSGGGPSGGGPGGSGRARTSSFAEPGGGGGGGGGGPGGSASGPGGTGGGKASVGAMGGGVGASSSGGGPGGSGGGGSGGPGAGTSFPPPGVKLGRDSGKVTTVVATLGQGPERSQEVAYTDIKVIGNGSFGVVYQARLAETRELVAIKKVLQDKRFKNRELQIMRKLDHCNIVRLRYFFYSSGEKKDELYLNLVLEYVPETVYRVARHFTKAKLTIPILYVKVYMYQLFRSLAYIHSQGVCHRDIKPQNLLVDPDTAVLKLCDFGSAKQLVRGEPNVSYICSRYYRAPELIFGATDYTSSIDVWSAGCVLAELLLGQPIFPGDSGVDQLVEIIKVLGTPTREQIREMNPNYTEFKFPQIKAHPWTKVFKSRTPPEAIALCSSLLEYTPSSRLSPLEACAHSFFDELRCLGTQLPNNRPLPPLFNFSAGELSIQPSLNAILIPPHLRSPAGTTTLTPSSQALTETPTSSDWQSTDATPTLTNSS

CaMKIIδ(h) = CaMKIIδ(h) (Homo sapiens, UniProt Q13557); experiment: KinaseProfiler kinase assay; type: biochemical
CLK2(h) = CLK2(h) (Homo sapiens, UniProt P49760); experiment: KinaseProfiler kinase assay; type: biochemical
Sequence of CLK2(h) (P49760 whole entry): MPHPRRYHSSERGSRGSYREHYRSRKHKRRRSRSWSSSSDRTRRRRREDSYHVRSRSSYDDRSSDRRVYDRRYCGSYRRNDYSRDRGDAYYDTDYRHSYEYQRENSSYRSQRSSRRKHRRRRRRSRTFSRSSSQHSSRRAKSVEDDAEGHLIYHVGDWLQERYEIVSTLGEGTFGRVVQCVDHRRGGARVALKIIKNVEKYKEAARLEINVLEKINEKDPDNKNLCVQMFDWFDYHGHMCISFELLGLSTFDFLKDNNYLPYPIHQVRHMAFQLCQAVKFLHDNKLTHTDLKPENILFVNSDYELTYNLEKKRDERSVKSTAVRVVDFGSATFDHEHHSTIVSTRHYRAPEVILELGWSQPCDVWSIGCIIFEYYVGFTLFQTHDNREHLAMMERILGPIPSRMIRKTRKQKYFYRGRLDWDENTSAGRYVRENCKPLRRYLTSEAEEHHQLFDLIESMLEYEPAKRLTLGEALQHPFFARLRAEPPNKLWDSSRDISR

CDK5/p25(h) = CDK5/p25(h) (Homo sapiens, UniProt Q00535); experiment: KinaseProfiler kinase assay; type: biochemical
Sequence of CDK5/p25(h) (Q00535 whole entry): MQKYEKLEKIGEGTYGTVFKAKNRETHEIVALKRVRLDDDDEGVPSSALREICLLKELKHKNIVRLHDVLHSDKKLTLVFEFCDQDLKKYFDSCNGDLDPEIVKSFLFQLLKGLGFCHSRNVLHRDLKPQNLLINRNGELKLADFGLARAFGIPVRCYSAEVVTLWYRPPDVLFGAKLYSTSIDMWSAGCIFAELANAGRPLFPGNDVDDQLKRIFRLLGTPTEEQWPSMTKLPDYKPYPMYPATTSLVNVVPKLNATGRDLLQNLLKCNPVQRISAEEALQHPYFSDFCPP
Sequence of CDK5/p25(h) (Q15078 99-307 partner): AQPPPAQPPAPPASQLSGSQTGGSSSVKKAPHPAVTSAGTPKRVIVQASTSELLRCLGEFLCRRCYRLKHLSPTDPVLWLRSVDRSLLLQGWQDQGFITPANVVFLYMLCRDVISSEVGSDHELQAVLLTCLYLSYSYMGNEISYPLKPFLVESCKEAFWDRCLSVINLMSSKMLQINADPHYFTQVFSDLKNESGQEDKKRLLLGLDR

[1] = test system: SC LOX IMVI Melanoma Xenografts; experiment: SC LOX IMVI Melanoma Xenografts model in nude mice; type: in vivo, mouse; details: 50 mg/kg intraperitoneal
Description: (§1) The in vivo anti-tumor efficacy of Compound 53 has been studied using SC LOX IMVI Melanoma Xenografts model in nude mice (FIG. 76). This was a subcutaneous early stage experiment (defined as a median tumor staging size less than 200 mg). Compound 53 or vehicle control was administered by Intraperitoneal injection for various days with different doses.

[2] = test system: U251 human CNS tumor xenograft; experiment: U251 human CNS tumor xenograft model in nude mice; type: in vivo, mouse; details: 60 mg/kg intraperitoneal
Description: as §1, with “U251 human CNS tumor xenograft” for “SC LOX IMVI Melanoma Xenografts”, “16).” for “76).”, “doses. […] Compound 53 was well tolerated at this doses with maximum body weight lose 3.4%.” for “doses.”

[3] = Plasma concentration after oral dosing in MV4-11 tumor-bearing mice (LCMS); type: in vivo; details: SCID, mouse, 24 hour after single oral 50 mg/kg
Description: (§2) The mice carrying the established MV4-11 tumor xenografts (tumor volume around 150 mm^3) were given an oral dose of 50 mg/kg NTW-3456. At 0, 1, 2, 8, 16, 24 hours after dosing, three were euthanized. The blood samples were collected and plasma was prepared with centrifuge for LCMS assay. And the tumors were harvested, homogenized in lysis buffer, immunoprecipitated with anti-FLT3 antibody FIG. 33.
(§3) The curve (solid dot) is the plot of plasma concentration-time profiles of NTW-3456 after oral administration of 50 mg/kg.

[4] = test system: Panc-1 pancreatic carcinoma; experiment: Panc-1 model of pancreatic carcinoma; type: in vivo, mouse; details: with or without Abraxane
[5] = test system: FLT3 phosphorylation (pFLT3) of MV4-11 tumors; experiment: FLT3 phosphorylation in MV4-11 tumor xenografts after oral dosing; type: in vivo; details: Mus musculus, 24 hour after single oral 50 mg/kg
Description: as §2, §3

[6] = test system: AN3 human endometrial carcinoma xenograft; experiment: Endometrial carcinoma xenograft; type: in vivo, mouse

Sequence of CHK2(R145W)(h) (O96017 whole entry R145W): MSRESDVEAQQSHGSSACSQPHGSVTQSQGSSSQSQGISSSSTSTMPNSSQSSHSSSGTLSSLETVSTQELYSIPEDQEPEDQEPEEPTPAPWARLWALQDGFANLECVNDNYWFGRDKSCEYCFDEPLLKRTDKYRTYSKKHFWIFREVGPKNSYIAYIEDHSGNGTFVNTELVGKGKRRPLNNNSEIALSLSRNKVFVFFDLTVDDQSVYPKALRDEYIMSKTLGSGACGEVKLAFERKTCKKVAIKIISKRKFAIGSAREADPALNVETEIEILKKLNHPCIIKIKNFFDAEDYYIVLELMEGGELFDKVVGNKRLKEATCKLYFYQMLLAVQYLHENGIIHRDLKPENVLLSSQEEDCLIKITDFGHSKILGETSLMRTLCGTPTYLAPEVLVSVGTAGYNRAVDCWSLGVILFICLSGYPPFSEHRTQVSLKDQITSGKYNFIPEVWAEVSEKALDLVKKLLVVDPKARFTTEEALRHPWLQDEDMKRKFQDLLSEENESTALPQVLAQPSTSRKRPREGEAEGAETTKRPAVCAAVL
Sequence of PIP5K1γ(h) (O60331 whole entry): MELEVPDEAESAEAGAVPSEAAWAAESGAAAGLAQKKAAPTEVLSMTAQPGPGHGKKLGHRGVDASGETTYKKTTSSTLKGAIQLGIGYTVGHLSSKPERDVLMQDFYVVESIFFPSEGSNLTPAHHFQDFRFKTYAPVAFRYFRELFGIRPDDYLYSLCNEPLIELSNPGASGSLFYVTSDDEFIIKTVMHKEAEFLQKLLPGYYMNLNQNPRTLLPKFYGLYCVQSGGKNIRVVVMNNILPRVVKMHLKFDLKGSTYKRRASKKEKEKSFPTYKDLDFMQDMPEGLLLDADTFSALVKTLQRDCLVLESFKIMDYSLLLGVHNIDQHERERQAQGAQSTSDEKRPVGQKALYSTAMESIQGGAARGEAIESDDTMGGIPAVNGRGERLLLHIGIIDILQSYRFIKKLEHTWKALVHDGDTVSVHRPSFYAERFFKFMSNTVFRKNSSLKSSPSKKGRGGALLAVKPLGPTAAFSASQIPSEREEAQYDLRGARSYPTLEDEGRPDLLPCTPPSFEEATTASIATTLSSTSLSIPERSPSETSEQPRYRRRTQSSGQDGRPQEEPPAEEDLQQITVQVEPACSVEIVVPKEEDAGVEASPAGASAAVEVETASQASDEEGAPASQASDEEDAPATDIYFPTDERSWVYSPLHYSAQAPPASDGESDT

Row | Structure (SMILES) | inhibition at 0.1 µM (PIP5K1γ(h)) [%] | inhibition at 0.1 µM (DRAK1(h)) [%] | inhibition at 0.1 µM (CHK2(R145W)(h)) [%] | inhibition at 0.1 µM (PI3 Kinase (p120γ)(h)) [%] | inhibition at 0.1 µM (CK1γ1(h)) [%] | inhibition at 0.1 µM (Fgr(h)) [%] | inhibition at 0.1 µM (mTOR(h)) [%] | inhibition at 0.1 µM (JNK2α2(h)) [%] | inhibition at 0.1 µM (GSK3α(h)) [%] | inhibition at 0.1 µM (CaMKIIδ(h)) [%] | inhibition at 0.1 µM (CLK2(h)) [%] | inhibition at 0.1 µM (CDK5/p25(h)) [%] | maximum body weight lose ([1]; QDx4) [%] | treat/control (T/C) ([1]; QDx4, day 13) [%] | maximum body weight lose ([2]; Q2Dx3) [%] | treat/control (T/C) ([2]; Q2Dx3, day 30) [%] | concentration at 24 h [3] [nM] | anti-tumor activity [4] | inhibition at 50 mg/kg [5] [%] | anti-tumor effect [6]
1 | Cc1cc2c(F)c(Oc3nc(Nc4cc(C5CC5)[nH]n4)cc(N4CCN(C)CC4)n3)ccc2[nH]1 [Compound 10] | -8 | 36 | 22 | -2 | -4 | 97 | 25 | -20 | 28 | -6 | 29 | 24 |  |  |  |  |  |  |  | 
2 | Cc1cc2c(F)c(Oc3nc(Nc4cc(C5CC5)[nH]n4)cc(N4CCNCC4)n3)ccc2[nH]1 [Compound 11, N-(5-cyclopropyl-1H-pyrazol-3-yl)-2-((4-fluoro-2-methyl-1H-indol-5-yl)oxy)-6-(piperazin-1-yl)pyrimidin-4-amine] | -5 | 42 | 6 | -1 | -10 | 100 | 18 | -16 | 20 | 6 | -3 | 26 |  |  |  |  |  |  |  | 
3 | C/C=C/c1cc(Nc2cc(N3CCN(C)CC3)nc(Oc3ccc4[nH]c(C)cc4c3F)n2)n[nH]1 [Compound 53] |  |  |  |  |  |  |  |  |  |  |  |  | 10.3 | 21 | 3.4 | 40 |  |  |  | 
4 | C/C=C/c1cc(Nc2cc(N3CCN(C)CC3)nc(Oc3cc(F)c4[nH]c(C)cc4c3F)n2)n[nH]1 [NTW-3456] |  |  |  |  |  |  |  |  |  |  |  |  |  |  |  |  | 7 | significant anti-tumor activity | > 60 | significant anti-tumor activity

— patent US10245261B2, “Substituted indol-5-ol derivatives and their therapeutic applications” (NantBioScience, Inc., priority 2013, dated 2019)
